From patent publication US9878054B2, “Polypeptide and lipophilic moiety conjugate compositions, formulations, and uses related thereto” (Tufts Medical Center, Inc., priority 2012, dated 2018)
Where a SMILES comes first, the peptide text is derived from it. The star is where a group is joined. Palmitoyl = CCCCCCCCCCCCCCCC(=O)*

Tests used:
[1] = system: human whole blood (red blood cell lysis); assay: Hemolysis of human whole blood; type: cell-based; conditions: up to 3.3 mg/mL in 5% dextrose, blood mixed 2:1; 40 min at 37° C.
Method: Fresh human whole blood (anticoagulated with 10 U heparin/mL) was mixed 2:1 with the various indicated dilutions of micelles of PZ-128 in 5% dextrose, incubated for 40 min at 37° C., and red blood cell lysis quantified by hemoglobin (Hb) release into the supernatant.
The PZ-128 micelle particles were solubilized in 5% dextrose/water at 10 mg/mL concentration and serially diluted with additional 5% dextrose/water to make stock solutions of 0.75, 1.5, 2.25, 3.0, 3.3 and 4.0 mg/mL PZ-128 in 5% dextrose water. Fresh human whole blood (anticoagulated with 10 U heparin/mL) was mixed 2:1 with the various dilutions of PZ-128 in 5% dextrose, incubated for 40 min at 37° C., and red blood cell lysis quantified by hemoglobin (Hb) release into the supernatant. […] The final pH of the PZ-128 micelles in 5% dextrose/water ranged from 6.75 to 7.13 at 1.25-10 mg/mL at room temperature.

[2] = system: guinea pig platelets (thromboxane mimetic U46119); assay: Guinea pig ex vivo platelet aggregation to thromboxane mimetic U46119 after iv infusion; type: in vivo; conditions: 3 or 6 mg/kg iv, 20 μM U46119
Method: PZ-128 or 5% dextrose USP vehicle was infused for 10 min into the jugular vein of male and female guinea pigs (0.55-0.65 kg). A-C, At the 15 min time point, whole blood was collected by cardiac puncture in 100 μg/ml PPACK/4% Na-citrate (final) anti-coagulant and platelet rich plasma (PRP) prepared and aggregation measurements were performed. […] B-C, PRP obtained at the 15 min time point after infusion with vehicle, 3 mg/kg PZ-128 or 6 mg/kg PZ128 was challenged with 2.5 μM SFLLRN, 20 μM ADP or 20 μM thromboxane mimetic, U46119. Individual data points (n=3) are overlayed on bar graphs depicting mean±SD. […] Data in B-D were analyzed by the non-parametric Kruskal-Wallis test with the Dunn's multiple pairwise comparison post-test.
PZ-128 micelles were delivered by internal jugular vein infusions over 10 min.
Guinea pigs weighing 600-650 g were used for platelet aggregation experiments. PZ-128 micelles (3 or 6 mg/kg) were administered by a 10 min intravenous infusion, and blood was collected by cardiac puncture into sodium citrate (0.4% vol/vol final) 5 minutes after cessation of the infusion. PRP was prepared and PPACK added to a final concentration of 100 μg/ml. PRP was calcified with 2.5 mM CaCl2 and aggregation was performed as described above.

CCCCCCCCCCCCCCCC(=O)N[C@@H](CCCCN)C(=O)N[C@@H](CCCCN)C(=O)N[C@@H](CO)C(=O)N[C@@H](CCCNC(=N)N)C(=O)N[C@@H](C)C(=O)N[C@@H](CC(C)C)C(=O)N[C@@H](Cc1ccccc1)C(N)=O [PZ-128, palmitate-KKSRALF-NH2] (Palmitoyl-KKSRALF-NH2)
Hemolysis of human whole blood (Hb release) [1]: no significant hemolysis
Effect on ex vivo aggregation to thromboxane mimetic U46119 [2]: no effect
